These results are taken from US20040204863A1, “Crystal of a kinase-ligand complex and methods of use” (priority 1999, published 2004).

The target in one assay is Lck (Homo sapiens, UniProt P06239). The note with it: reported in [51]; cited from earlier work.
In assay [1] the test system is TCR ζ-chain (p23) and 70 kD protein phosphorylation in Jurkat cells. Type of assay: cell-based. As to conditions: TCR-induced phosphotyrosine, western blot, FIG. 7C. As for the experimental part: Phosphotyrosine western blotting. […] Cells were then transferred to 37° C. water bath for 1 minute. Stimulation was stopped by the addition of 5 volumes of cold PBS containing 200 μM sodium orthovanadate. Cells were spun down and lysed in 150 mM Tris/10 mM HEPES buffer, pH 7.3, containing 1% Triton X-100 and Complete protease inhibitor cocktail (Boehringer Mannheim, Germany) for 30 minutes on ice. […] Blots were probed with anti-phosphotyrosine (4G10, Upstate Biotechnology, Inc., Saranac Lake, N.Y.) and developed using ECL-plus following the manufacturers directions (Amersham, Arlington Heights, Ill.).

The next assay has as its target T1, ZAP-70 (Homo sapiens, UniProt P43403).
T1 sequence (P43403 1-619): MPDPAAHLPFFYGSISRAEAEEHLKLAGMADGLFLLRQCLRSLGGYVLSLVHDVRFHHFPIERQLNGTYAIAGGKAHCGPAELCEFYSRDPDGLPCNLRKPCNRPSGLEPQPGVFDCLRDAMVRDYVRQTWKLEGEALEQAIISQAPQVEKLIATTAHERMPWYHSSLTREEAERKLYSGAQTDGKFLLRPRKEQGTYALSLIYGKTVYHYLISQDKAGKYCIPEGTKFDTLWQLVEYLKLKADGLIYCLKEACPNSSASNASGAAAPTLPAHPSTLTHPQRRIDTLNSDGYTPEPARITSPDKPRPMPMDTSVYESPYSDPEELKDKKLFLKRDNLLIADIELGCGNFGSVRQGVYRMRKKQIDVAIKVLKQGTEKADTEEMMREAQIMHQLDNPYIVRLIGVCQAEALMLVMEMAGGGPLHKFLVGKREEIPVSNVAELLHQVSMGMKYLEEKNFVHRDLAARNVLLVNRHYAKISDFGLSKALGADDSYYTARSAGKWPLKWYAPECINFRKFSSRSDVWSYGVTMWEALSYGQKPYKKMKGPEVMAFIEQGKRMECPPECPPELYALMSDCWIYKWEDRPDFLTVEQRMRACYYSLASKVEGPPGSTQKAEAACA
As to conditions: reported in [51]; cited from earlier work.

The test system of assay [2] is IL-2 production in hPBL T-cells. Nature of the assay: T-cell activation: TCR-induced IL-2 secretion (ELISA). Type of assay: cell-based. The note with it: human T-cell cultures, anti-CD3/anti-CD28 stimulation, 20 hours, FIG. 7B; read-out: IC50 inhibition of IL-2 production. As for the experimental part: T-cell activation. Whole blood was obtained from normal donors and human peripheral blood lymphocytes (hPBL) were isolated by ficol-hypaque density centrifugation. T-cells were then purified from the hPBL by negative selection using an R&D column following the manufacturers directions (R&D Systems, Minneapolis, Minn.). A 96-well flat-bottomed plate was coated with 10 μg/ml of goat anti-mouse (GAM)-IgG1 (Caltag, Burlingame, Calif.) in PBS overnight at 4C. The GAM-coated plate was flicked out and anti-CD3 mAb (UCHT-1, Coulter/Immunotech, Miami, Fla.) is added at 0.2 μg/ml in AIMV medium (Gibco, Grand Island, N.Y.) for 3 hr. at 37C. Purified T-cells were pre-incubated at 1×10^5/well in AIM V with or without compound for 30 minutes then transferred to the anti-CD3 capture plate. Finally, anti-CD28 (Pharmingen, San Diego, Calif.) in AIMV (150 ng/ml final) was added to each well. Cells were incubated for 20 hours at 37C in 5% CO2 then supernatants were tested by ELISA for cytokine levels (Endogen, Woburn, Mass.).
Background: ELISA stands for enzyme-linked immunosorbent assay.

Chain of Lck (P06239 whole entry, species assumed): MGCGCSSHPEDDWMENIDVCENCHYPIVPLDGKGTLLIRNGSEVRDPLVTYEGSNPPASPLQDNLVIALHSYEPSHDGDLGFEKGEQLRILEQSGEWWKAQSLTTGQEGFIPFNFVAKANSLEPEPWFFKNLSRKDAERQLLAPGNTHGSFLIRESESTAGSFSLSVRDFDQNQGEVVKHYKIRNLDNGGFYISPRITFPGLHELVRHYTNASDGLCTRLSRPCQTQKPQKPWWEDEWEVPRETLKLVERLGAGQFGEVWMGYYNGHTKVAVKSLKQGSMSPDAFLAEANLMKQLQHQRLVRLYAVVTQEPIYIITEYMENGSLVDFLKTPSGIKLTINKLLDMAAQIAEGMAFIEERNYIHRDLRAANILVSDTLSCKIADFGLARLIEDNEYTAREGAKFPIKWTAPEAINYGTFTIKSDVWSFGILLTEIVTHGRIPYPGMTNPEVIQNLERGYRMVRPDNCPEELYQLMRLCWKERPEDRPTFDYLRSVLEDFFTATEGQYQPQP

For the compound `Cc1ccc(-c2nn(C(C)(C)C)c3ncnc(N)c23)cc1` [PP1], the “inhibitory activity against Lck compared with PP2” value at Lck was “approximately the same inhibitory activity against Lck”.
As usually defined, the IC50 is the point on the concentration scale where inhibition reaches its midpoint. As for `CC(C)(C)n1nc(-c2ccc(Cl)cc2)c2c(N)ncnc21` [PP2], in assay [1], the “inhibition of Lck-dependent phosphorylation of the TCR ζ-chain (p23)” value is on record as “dose-dependent inhibition” and the “inhibition of phosphorylation of a 70 kD protein (likely ZAP-70)” value is on record as “inhibited the phosphorylation of a 70 kD protein”. Besides, the IC50 on ZAP-70 is not below 100000 nM. Further, in assay [2], the IC50 was found to be 600 nM.
For the compound `CN[C@@H]1C[C@H]2O[C@@](C)([C@@H]1OC)n1c3ccccc3c3c4c(c5c6ccccc6n2c5c31)C(=O)NC4` [staurosporine], in assay [2], the IC50 was found to be 60 nM.
